These compounds were tested against full-length ATR (Homo sapiens (Human), UniProt Q13535) (assay: ATR Inhibition Assay (radioactive-phosphate incorporation)). Conditions: read-out: ATR Ki.
Type: biochemical
How it was run: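 Ki(app) was derived by non-linear regression of background-corrected initial rates of 33P incorporation into an 800 μM target peptide, read by phosphocellulose filter scintillation counting. Reaction conditions: 5 nM full-length ATR, 10 μM [γ-33P]ATP, pH 7.5 Tris buffer with MgCl2 and DTT, 25 °C, 10-min preincubation, 24 h run.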

full-length ATR, sequence (Q13535 whole entry): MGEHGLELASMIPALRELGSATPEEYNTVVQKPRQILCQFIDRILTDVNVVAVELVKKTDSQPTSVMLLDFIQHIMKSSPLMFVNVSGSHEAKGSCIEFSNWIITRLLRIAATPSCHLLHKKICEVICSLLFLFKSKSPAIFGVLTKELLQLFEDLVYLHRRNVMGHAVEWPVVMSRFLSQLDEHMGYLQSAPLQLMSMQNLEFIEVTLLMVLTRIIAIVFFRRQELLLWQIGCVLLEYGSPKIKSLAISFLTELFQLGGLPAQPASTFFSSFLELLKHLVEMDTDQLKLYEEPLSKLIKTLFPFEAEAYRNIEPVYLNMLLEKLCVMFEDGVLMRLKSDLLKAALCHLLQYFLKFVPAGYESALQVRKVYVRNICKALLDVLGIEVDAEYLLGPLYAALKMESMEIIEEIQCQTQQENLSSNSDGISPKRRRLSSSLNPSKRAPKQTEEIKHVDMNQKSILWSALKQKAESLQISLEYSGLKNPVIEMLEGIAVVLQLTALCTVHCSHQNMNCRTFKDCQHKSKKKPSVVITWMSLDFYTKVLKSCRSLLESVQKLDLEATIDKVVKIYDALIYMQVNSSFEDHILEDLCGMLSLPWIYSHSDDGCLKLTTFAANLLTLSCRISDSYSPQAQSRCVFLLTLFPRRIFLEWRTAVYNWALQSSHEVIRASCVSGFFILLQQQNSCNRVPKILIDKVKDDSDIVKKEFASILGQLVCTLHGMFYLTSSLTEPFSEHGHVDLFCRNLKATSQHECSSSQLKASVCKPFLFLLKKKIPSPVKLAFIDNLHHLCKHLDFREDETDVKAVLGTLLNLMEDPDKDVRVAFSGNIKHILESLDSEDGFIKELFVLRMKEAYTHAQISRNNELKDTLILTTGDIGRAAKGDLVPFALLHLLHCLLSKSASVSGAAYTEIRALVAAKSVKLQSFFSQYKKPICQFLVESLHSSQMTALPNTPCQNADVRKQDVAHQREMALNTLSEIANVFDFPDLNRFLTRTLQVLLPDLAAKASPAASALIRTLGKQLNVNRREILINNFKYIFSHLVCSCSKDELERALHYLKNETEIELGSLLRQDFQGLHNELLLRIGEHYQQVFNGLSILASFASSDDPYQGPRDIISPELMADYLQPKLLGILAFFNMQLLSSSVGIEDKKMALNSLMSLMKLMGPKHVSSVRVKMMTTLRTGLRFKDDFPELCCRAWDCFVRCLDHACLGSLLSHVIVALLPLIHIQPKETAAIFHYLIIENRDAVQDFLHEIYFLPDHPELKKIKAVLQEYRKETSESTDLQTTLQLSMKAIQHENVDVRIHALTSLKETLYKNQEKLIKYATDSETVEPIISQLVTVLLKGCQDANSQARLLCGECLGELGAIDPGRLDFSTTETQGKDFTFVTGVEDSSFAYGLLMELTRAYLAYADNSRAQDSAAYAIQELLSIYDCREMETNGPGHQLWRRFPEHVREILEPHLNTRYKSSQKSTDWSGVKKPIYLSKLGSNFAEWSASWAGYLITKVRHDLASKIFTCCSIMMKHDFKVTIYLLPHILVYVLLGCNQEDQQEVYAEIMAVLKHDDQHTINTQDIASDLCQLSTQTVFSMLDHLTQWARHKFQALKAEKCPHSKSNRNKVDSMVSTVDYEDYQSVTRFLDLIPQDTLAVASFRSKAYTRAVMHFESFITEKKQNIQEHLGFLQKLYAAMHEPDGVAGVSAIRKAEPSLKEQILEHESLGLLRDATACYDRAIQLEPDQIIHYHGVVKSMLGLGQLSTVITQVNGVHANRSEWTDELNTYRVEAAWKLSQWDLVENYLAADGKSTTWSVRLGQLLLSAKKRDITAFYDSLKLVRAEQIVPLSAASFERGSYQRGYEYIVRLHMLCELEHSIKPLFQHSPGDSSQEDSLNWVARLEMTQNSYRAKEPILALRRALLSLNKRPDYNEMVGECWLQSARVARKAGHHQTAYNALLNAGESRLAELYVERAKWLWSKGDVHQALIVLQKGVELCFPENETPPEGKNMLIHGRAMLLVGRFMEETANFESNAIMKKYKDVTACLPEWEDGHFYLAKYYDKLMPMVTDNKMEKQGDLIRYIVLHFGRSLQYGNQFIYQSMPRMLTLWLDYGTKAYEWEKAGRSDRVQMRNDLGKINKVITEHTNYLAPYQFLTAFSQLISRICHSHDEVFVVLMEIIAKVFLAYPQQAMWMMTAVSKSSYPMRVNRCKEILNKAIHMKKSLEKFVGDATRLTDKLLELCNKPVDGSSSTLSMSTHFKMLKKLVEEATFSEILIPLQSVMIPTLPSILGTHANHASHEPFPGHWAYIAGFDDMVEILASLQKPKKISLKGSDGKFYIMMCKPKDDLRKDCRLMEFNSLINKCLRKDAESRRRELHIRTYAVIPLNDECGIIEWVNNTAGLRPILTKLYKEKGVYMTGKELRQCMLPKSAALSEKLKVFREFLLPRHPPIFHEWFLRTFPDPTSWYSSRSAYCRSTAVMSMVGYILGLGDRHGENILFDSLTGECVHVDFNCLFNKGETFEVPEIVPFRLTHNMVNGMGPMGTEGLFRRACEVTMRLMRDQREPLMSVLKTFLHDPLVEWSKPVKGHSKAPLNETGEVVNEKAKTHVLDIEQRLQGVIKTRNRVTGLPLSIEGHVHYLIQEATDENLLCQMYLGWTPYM

| SMILES | Ki [µM] |
| --- | --- |
| CNCc1ccc(-c2nnc(-c3nc(-c4ccc(S(=O)(=O)C(C)CN(C)C)cc4)cnc3N)o2)cc1 (stereo not drawn) [IA-324, 5-[4-[2-(dimethylamino)-1-methyl-ethyl]sulfonylphenyl]-3-[5-[4-(methylaminomethyl)phenyl]-1,3,4-oxadiazol-2-yl]pyrazin-2-amine] | ≤ 0.01 |
| CCc1cc(-c2cnc(N)c(-c3nnc(-c4ccc(CNC)cc4)o3)n2)ccc1S(=O)(=O)C(C)C [IA-326, 5-(3-ethyl-4-isopropylsulfonyl-phenyl)-3-[5-[4-(methylaminomethyl)phenyl]-1,3,4-oxadiazol-2-yl]pyrazin-2-amine] | ≤ 0.01 |
| Nc1ncc(-c2ccc(S(=O)(=O)C3CCOCC3)cc2)nc1-c1nnc(-c2ccccc2F)o1 [IA-327, 3-[5-(2-fluorophenyl)-1,3,4-oxadiazol-2-yl]-5-(4-tetrahydropyran-4-ylsulfonylphenyl)pyrazin-2-amine] | ≤ 0.01 |
| CNCc1ccc(-c2nnc(-c3nc(-c4ccc(S(=O)(=O)C(C)CC(C)(C)O)cc4)cnc3N)o2)c(F)c1 (stereo not drawn) [IA-328, 4-[4-[5-amino-6-[5-[2-fluoro-4-(methylaminomethyl)phenyl]-1,3,4-oxadiazol-2-yl]pyrazin-2-yl]phenyl]sulfonyl-2-methyl-pentan-2-ol] | ≤ 0.01 |
| CNCc1ccc(-c2nnc(-c3nc(-c4ccc(S(=O)(=O)C(C)C)c(Cl)c4)cnc3N)o2)c(F)c1 [IA-329, 5-(3-chloro-4-isopropylsulfonyl-phenyl)-3-[5-[2-fluoro-4-(methylaminomethyl)phenyl]-1,3,4-oxadiazol-2-yl]pyrazin-2-amine] | ≤ 0.01 |
| CC(C)S(=O)(=O)c1ccc(-c2cnc(N)c(-c3nnc(-c4ccc(CN[C@H](C)CO)cc4F)o3)n2)cc1 [IA-333, (R)-2-(4-(5-(3-amino-6-(4-(isopropylsulfonyl)phenyl)pyrazin-2-yl)-1,3,4-oxadiazol-2-yl)-3-fluorobenzylamino)propan-1-ol] | ≤ 0.01 |
| CC(CN(C)C)S(=O)(=O)c1ccc(-c2cnc(N)c(-c3nnc(-c4ccccc4F)o3)n2)cc1 (stereo not drawn) [IA-337, 5-[4-[2-(dimethylamino)-1-methyl-ethyl]sulfonylphenyl]-3-[5-(2-fluorophenyl)-1,3,4-oxadiazol-2-yl]pyrazin-2-amine] | ≤ 0.01 |
| CC(CCO)S(=O)(=O)c1ccc(-c2cnc(N)c(-c3nnc(-c4ccccc4F)o3)n2)cc1 (stereo not drawn) [IA-339, 3-[4-[5-amino-6-[5-(2-fluorophenyl)-1,3,4-oxadiazol-2-yl]pyrazin-2-yl]phenyl]sulfonylbutan-1-ol] | ≤ 0.01 |
| CC(C)S(=O)(=O)c1ccc(-c2cnc(N)c(-c3nnc(-c4ccc(CNC[C@@H](C)O)cc4F)o3)n2)cc1 [IA-341, (R)-1-(4-(5-(3-amino-6-(4-(isopropylsulfonyl)phenyl)pyrazin-2-yl)-1,3,4-oxadiazol-2-yl)-3-fluorobenzylamino)propan-2-ol] | ≤ 0.01 |
| CNCc1ccc(-c2nnc(-c3nc(-c4ccc(S(=O)(=O)C5CCOCC5)cc4)cnc3N)o2)c(F)c1 [IA-344, 3-[5-[2-fluoro-4-(methylaminomethyl)phenyl]-1,3,4-oxadiazol-2-yl]-5-(4-tetrahydropyran-4-ylsulfonylphenyl)pyrazin-2-amine] | ≤ 0.01 |
| CC(C)S(=O)(=O)c1ccc(-c2cnc(N)c(-c3nnc(-c4ccc(CNC5CCOC5)cc4F)o3)n2)cc1 (stereo not drawn) [IA-345, 3-[5-[2-fluoro-4-[(tetrahydrofuran-3-ylamino)methyl]phenyl]-1,3,4-oxadiazol-2-yl]-5-(4-isopropylsulfonylphenyl)pyrazin-2-amine] | ≤ 0.01 |
| CC(C)S(=O)(=O)c1ccc(-c2cnc(N)c(-c3nnc(-c4ccc(CNCCF)cc4)o3)n2)cc1 [IA-346, 3-[5-[4-[(2-fluoroethylamino)methyl]phenyl]-1,3,4-oxadiazol-2-yl]-5-(4-isopropylsulfonylphenyl)pyrazin-2-amine] | ≤ 0.01 |
| CNCc1ccc(-c2nnc(-c3nc(-c4ccc(S(=O)(=O)C5CCOC5)cc4)cnc3N)o2)c(F)c1 (stereo not drawn) [IA-347, 3-[5-[2-fluoro-4-(methylaminomethyl)phenyl]-1,3,4-oxadiazol-2-yl]-5-(4-tetrahydrofuran-3-ylsulfonylphenyl)pyrazin-2-amine] | ≤ 0.01 |
| Nc1ncc(-c2ccc(S(=O)(=O)C3CCOC3)cc2)nc1-c1nnc(-c2ccccc2F)o1 (stereo not drawn) [IA-349, 3-[5-(2-fluorophenyl)-1,3,4-oxadiazol-2-yl]-5-(4-tetrahydrofuran-3-ylsulfonylphenyl)pyrazin-2-amine] | ≤ 0.01 |
| CC(C)S(=O)(=O)c1ccc(-c2cnc(N)c(-c3cc(-c4ccc(CN)cc4)no3)n2)cc1 [IIA-5, 3-[3-[4-(aminomethyl)phenyl]isoxazol-5-yl]-5-(4-isopropylsulfonylphenyl)pyrazin-2-amine] | ≤ 0.01 |
| CCCNCc1ccc(-c2cc(-c3nc(-c4ccc(S(=O)(=O)C(C)C)cc4)cnc3N)on2)cc1 [IIA-6, 5-(4-(isopropylsulfonyl)phenyl)-3-(3-(4-((propylamino)methyl)phenyl)isoxazol-5-yl)pyrazin-2-amine] | ≤ 0.01 |
| CC(C)NCc1ccc(-c2cc(-c3nc(-c4ccc(S(=O)(=O)C(C)C)cc4)cnc3N)on2)cc1 [IIA-8, 3-[3-[4-[(isopropylamino)methyl]phenyl]isoxazol-5-yl]-5-(4-isopropylsulfonylphenyl)pyrazin-2-amine] | ≤ 0.01 |
| CCNCc1ccc(-c2cc(-c3nc(-c4ccc(S(=O)(=O)C(C)C)cc4)cnc3N)on2)cc1 [IIA-10, 3-[3-[4-(ethylaminomethyl)phenyl]isoxazol-5-yl]-5-(4-isopropylsulfonylphenyl)pyrazin-2-amine] | ≤ 0.01 |
| CNCc1ccc(-c2cc(-c3nc(-c4ccc(S(=O)(=O)C(C)C)cc4)cnc3N)on2)c(C)c1 [IIA-12, 5-(4-isopropylsulfonylphenyl)-3-[3-[2-methyl-4-(methylaminomethyl)phenyl]isoxazol-5-yl]pyrazin-2-amine] | ≤ 0.01 |

Next, values leading:

| Ki [µM] | SMILES |
| --- | --- |
| ≤ 0.01 | CNCc1ccc(-c2nnc(-c3nc(-c4ccc(S(=O)(=O)C(C)C)cc4C(F)F)cnc3N)o2)cc1 [IA-322, 5-[2-(difluoromethyl)-4-isopropylsulfonyl-phenyl]-3-[5-[4-(methylaminomethyl)phenyl]-1,3,4-oxadiazol-2-yl]pyrazin-2-amine] |
| ≤ 0.01 | CNCc1ccc(-c2nnc(-c3nc(-c4ccc(S(=O)(=O)C5CCOCC5)cc4)cnc3N)o2)cc1 [IA-323, 3-[5-[4-(methylaminomethyl)phenyl]-1,3,4-oxadiazol-2-yl]-5-(4-tetrahydropyran-4-ylsulfonylphenyl)pyrazin-2-amine] |
| ≤ 0.01 | CNCc1ccc(-c2nnc(-c3nc(-c4ccc(S(=O)(=O)C(C)CCOC)cc4)cnc3N)o2)cc1 (stereo not drawn) [IA-330, 5-[4-(3-methoxy-1-methyl-propyl)sulfonylphenyl]-3-[5-[4-(methylaminomethyl)phenyl]-1,3,4-oxadiazol-2-yl]pyrazin-2-amine] |
| ≤ 0.01 | CNCc1ccc(-c2nnc(-c3nc(-c4ccc(S(=O)(=O)C(C)C)cc4C#N)cnc3N)o2)cc1 [IA-331, 2-[5-amino-6-[5-[4-(methylaminomethyl)phenyl]-1,3,4-oxadiazol-2-yl]pyrazin-2-yl]-5-isopropylsulfonyl-benzonitrile] |
| ≤ 0.01 | CC(C)S(=O)(=O)c1ccc(-c2cnc(N)c(-c3nnc(-c4ccc(CNC[C@H](C)O)cc4F)o3)n2)cc1 [IA-334, (S)-1-(4-(5-(3-amino-6-(4-(isopropylsulfonyl)phenyl)pyrazin-2-yl)-1,3,4-oxadiazol-2-yl)-3-fluorobenzylamino)propan-2-ol] |
| ≤ 0.01 | CC(C)S(=O)(=O)c1ccc(-c2cnc(N)c(-c3nnc(-c4ccc(CN[C@@H](C)CO)cc4F)o3)n2)cc1 [IA-335, (S)-2-(4-(5-(3-amino-6-(4-(isopropylsulfonyl)phenyl)pyrazin-2-yl)-1,3,4-oxadiazol-2-yl)-3-fluorobenzylamino)propan-1-ol] |
| ≤ 0.01 | CNCc1ccc(-c2nnc(-c3nc(-c4ccc(S(=O)(=O)C(C)C)cc4)cnc3N)o2)cc1F [IA-336, 3-[5-[3-fluoro-4-(methylaminomethyl)phenyl]-1,3,4-oxadiazol-2-yl]-5-(4-isopropylsulfonylphenyl)pyrazin-2-amine] |
| ≤ 0.01 | CCC(C)S(=O)(=O)c1ccc(-c2cnc(N)c(-c3nnc(-c4ccc(CNC)cc4F)o3)n2)cc1 (stereo not drawn) [IA-338, 3-[5-[2-fluoro-4-(methylaminomethyl)phenyl]-1,3,4-oxadiazol-2-yl]-5-(4-sec-butylsulfonylphenyl)pyrazin-2-amine] |
| ≤ 0.01 | CC(C)S(=O)(=O)c1ccc(-c2cnc(N)c(-c3nnc(-c4ccc(CNCCF)cc4F)o3)n2)cc1 [IA-340, 3-[5-[2-fluoro-4-[(2-fluoroethylamino)methyl]phenyl]-1,3,4-oxadiazol-2-yl]-5-(4-isopropylsulfonylphenyl)pyrazin-2-amine] |
| ≤ 0.01 | CNCc1ccc(-c2nnc(-c3nc(-c4ccc(S(=O)(=O)C(C)CCO)cc4)cnc3N)o2)c(F)c1 (stereo not drawn) [IA-342, 3-[4-[5-amino-6-[5-[2-fluoro-4-(methylaminomethyl)phenyl]-1,3,4-oxadiazol-2-yl]pyrazin-2-yl]phenyl]sulfonylbutan-1-ol] |
| ≤ 0.01 | CC(CCN(C)C)S(=O)(=O)c1ccc(-c2cnc(N)c(-c3nnc(-c4ccccc4F)o3)n2)cc1 (stereo not drawn) [IA-343, 5-[4-[3-(dimethylamino)-1-methyl-propyl]sulfonylphenyl]-3-[5-(2-fluorophenyl)-1,3,4-oxadiazol-2-yl]pyrazin-2-amine] |
| ≤ 0.01 | CC(C)S(=O)(=O)c1ccc(-c2cnc(N)c(-c3nnc(-c4ccc(CNCC(C)(C)O)cc4F)o3)n2)cc1 [IA-348, 1-(4-(5-(3-amino-6-(4-(isopropylsulfonyl)phenyl)pyrazin-2-yl)-1,3,4-oxadiazol-2-yl)-3-fluorobenzylamino)-2-methylpropan-2-ol] |
| ≤ 0.01 | Nc1ncc(-c2ccc(C(=O)N3CCCNCC3)cc2)nc1-c1cc(-c2ccccc2)no1 [IIA-3] |
| ≤ 0.01 | CC(C)S(=O)(=O)c1ccc(-c2cnc(N)c(-c3cc(-c4ccc(CNCCO)cc4)no3)n2)cc1 [IIA-9, 2-(4-(5-(3-amino-6-(4-(isopropylsulfonyl)phenyl)pyrazin-2-yl)isoxazol-3-yl)benzylamino)ethanol] |

Source: patent US10479784B2, “Substituted pyrazin-2-amines as inhibitors of ATR kinase” (Vertex Pharmaceuticals Incorporated, priority 2008, dated 2019)
